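Compound exposure: 48 hours, 5 concentrations, 96-well plates. Here, GI50 denotes the concentration required for 50% inhibition of growth. TGI marks complete inhibition of growth.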
Key:
Experiment in all cases: inhibition of tumour cell growth, NCI panel, 48 h
NCI/ADR-RES ovarian = tested on: NCI/ADR-RES ovarian
MOLT-4 leukemia = tested on: MOLT-4 leukemia
M14 melanoma = tested on: M14 melanoma
HL-60(TB) leukemia = tested on: HL-60(TB) leukemia
EKVX NSCLC = tested on: EKVX NSCLC
ACHN renal = tested on: ACHN renal
SK-OV-3 ovarian = tested on: SK-OV-3 ovarian
OVCAR-5 ovarian = tested on: OVCAR-5 ovarian
UO-31 renal = tested on: UO-31 renal
U251 CNS = tested on: U251 CNS
SR leukemia = tested on: SR leukemia
DU-145 prostate = tested on: DU-145 prostate
BT-549 breast = tested on: BT-549 breast
T-47D breast = tested on: T-47D breast
K-562 leukemia = tested on: K-562 leukemia
MDA-MB-231 breast = tested on: MDA-MB-231 breast
HCC-2998 colon = tested on: HCC-2998 colon
RPMI-8226 leukemia = tested on: RPMI-8226 leukemia
SN12C renal = tested on: SN12C renal
SF-268 CNS = tested on: SF-268 CNS
KM12 colon = tested on: KM12 colon
OVCAR-8 ovarian = tested on: OVCAR-8 ovarian
SW-620 colon = tested on: SW-620 colon
COLO 205 colon = tested on: COLO 205 colon
RXF 393 renal = tested on: RXF 393 renal
SK-MEL-2 melanoma = tested on: SK-MEL-2 melanoma
SK-MEL-5 melanoma = tested on: SK-MEL-5 melanoma
HCT-116 colon = tested on: HCT-116 colon
OVCAR-4 ovarian = tested on: OVCAR-4 ovarian
UACC-62 melanoma = tested on: UACC-62 melanoma
TK-10 renal = tested on: TK-10 renal
A498 renal = tested on: A498 renal
HCT-15 colon = tested on: HCT-15 colon
NCI-H23 lung = tested on: NCI-H23 lung
HS 578T breast = tested on: HS 578T breast
IGROV1 ovarian = tested on: IGROV1 ovarian
SK-MEL-28 melanoma = tested on: SK-MEL-28 melanoma
NCI-H460 lung = tested on: NCI-H460 lung
SF-539 CNS = tested on: SF-539 CNS
PC-3 prostate = tested on: PC-3 prostate
CAKI-1 renal = tested on: CAKI-1 renal
786-0 renal = tested on: 786-0 renal
OVCAR-3 ovarian = tested on: OVCAR-3 ovarian
LOX IMVI melanoma = tested on: LOX IMVI melanoma
NCI-H522 lung = tested on: NCI-H522 lung
UACC-257 melanoma = tested on: UACC-257 melanoma
MDA-MB-435 = tested on: MDA-MB-435
MALME-3M melanoma = tested on: MALME-3M melanoma
HOP-62 NSCLC = tested on: HOP-62 NSCLC
NCI-H226 lung = tested on: NCI-H226 lung
SF-295 CNS = tested on: SF-295 CNS
CCRF-CEM leukemia = tested on: CCRF-CEM leukemia
HOP-92 NSCLC = tested on: HOP-92 NSCLC
SNB-19 CNS = tested on: SNB-19 CNS
SNB-75 CNS = tested on: SNB-75 CNS
MCF7 breast = tested on: MCF7 breast
A549 NSCLC = tested on: A549 NSCLC
HT29 colon = tested on: HT29 colon

CN1CCN(Cc2ccc(NC(=O)c3cncc(C#Cc4cnc(N)c5ccccc45)c3)cc2C(F)(F)F)CC1
GI50 (NCI/ADR-RES ovarian): 556 nM | TGI (NCI/ADR-RES ovarian): 1210 nM | GI50 (MOLT-4 leukemia): 164 nM | TGI (MOLT-4 leukemia): 1160 nM | GI50 (M14 melanoma): 133 nM | TGI (M14 melanoma): 551 nM | GI50 (HL-60(TB) leukemia): 165 nM | TGI (HL-60(TB) leukemia): 665 nM | GI50 (EKVX NSCLC): 413 nM | TGI (EKVX NSCLC): 974 nM | GI50 (ACHN renal): 145 nM | TGI (ACHN renal): 523 nM | GI50 (SK-OV-3 ovarian): 199 nM | TGI (SK-OV-3 ovarian): 638 nM | GI50 (OVCAR-5 ovarian): 457 nM | TGI (OVCAR-5 ovarian): 1110 nM | GI50 (UO-31 renal): 436 nM | TGI (UO-31 renal): 869 nM | GI50 (U251 CNS): 279 nM | TGI (U251 CNS): 763 nM | GI50 (SR leukemia): 157 nM | TGI (SR leukemia): 6630 nM | GI50 (DU-145 prostate): 213 nM | TGI (DU-145 prostate): 678 nM | GI50 (BT-549 breast): 1570 nM | TGI (BT-549 breast): 5800 nM | GI50 (T-47D breast): 1010 nM | TGI (T-47D breast): 4110 nM | GI50 (K-562 leukemia): 3.33 nM | TGI (K-562 leukemia): 524 nM | GI50 (MDA-MB-231 breast): 369 nM | TGI (MDA-MB-231 breast): 820 nM | GI50 (HCC-2998 colon): 420 nM | TGI (HCC-2998 colon): 878 nM | GI50 (RPMI-8226 leukemia): 441 nM | TGI (RPMI-8226 leukemia): 1410 nM | GI50 (SN12C renal): 242 nM | TGI (SN12C renal): 693 nM | GI50 (SF-268 CNS): 321 nM | TGI (SF-268 CNS): 832 nM | GI50 (KM12 colon): 14.8 nM | TGI (KM12 colon): 430 nM | GI50 (OVCAR-8 ovarian): 473 nM | TGI (OVCAR-8 ovarian): 1460 nM | GI50 (SW-620 colon): 125 nM | TGI (SW-620 colon): 421 nM | GI50 (COLO 205 colon): 405 nM | TGI (COLO 205 colon): 948 nM | GI50 (RXF 393 renal): 163 nM | TGI (RXF 393 renal): 563 nM | GI50 (SK-MEL-2 melanoma): 196 nM | TGI (SK-MEL-2 melanoma): 697 nM | GI50 (SK-MEL-5 melanoma): 537 nM | TGI (SK-MEL-5 melanoma): 994 nM | GI50 (HCT-116 colon): 160 nM | TGI (HCT-116 colon): 581 nM | GI50 (OVCAR-4 ovarian): 117 nM | TGI (OVCAR-4 ovarian): 738 nM | GI50 (UACC-62 melanoma): 587 nM | TGI (UACC-62 melanoma): 1160 nM | GI50 (TK-10 renal): 466 nM | TGI (TK-10 renal): 1000 nM | GI50 (A498 renal): 299 nM | TGI (A498 renal): 1140 nM | GI50 (HCT-15 colon): 124 nM | TGI (HCT-15 colon): 534 nM | GI50 (NCI-H23 lung): 410 nM | TGI (NCI-H23 lung): 963 nM | GI50 (HS 578T breast): 371 nM | TGI (HS 578T breast): 1180 nM | GI50 (IGROV1 ovarian): 127 nM | TGI (IGROV1 ovarian): 615 nM | GI50 (SK-MEL-28 melanoma): 513 nM | TGI (SK-MEL-28 melanoma): 988 nM | GI50 (NCI-H460 lung): 158 nM | TGI (NCI-H460 lung): 581 nM | GI50 (SF-539 CNS): 380 nM | TGI (SF-539 CNS): 792 nM | GI50 (PC-3 prostate): 442 nM | TGI (PC-3 prostate): 1360 nM | GI50 (CAKI-1 renal): 271 nM | TGI (CAKI-1 renal): 700 nM | GI50 (786-0 renal): 423 nM | TGI (786-0 renal): 890 nM | GI50 (OVCAR-3 ovarian): 410 nM | TGI (OVCAR-3 ovarian): 967 nM | GI50 (LOX IMVI melanoma): 387 nM | TGI (LOX IMVI melanoma): 837 nM | GI50 (NCI-H522 lung): 367 nM | TGI (NCI-H522 lung): 967 nM | GI50 (UACC-257 melanoma): 605 nM | TGI (UACC-257 melanoma): 1270 nM | GI50 (MDA-MB-435): 348 nM | TGI (MDA-MB-435): 783 nM | GI50 (MALME-3M melanoma): 315 nM | TGI (MALME-3M melanoma): 774 nM | GI50 (HOP-62 NSCLC): 324 nM | TGI (HOP-62 NSCLC): 1250 nM | GI50 (NCI-H226 lung): 393 nM | TGI (NCI-H226 lung): 1130 nM | GI50 (SF-295 CNS): 486 nM | TGI (SF-295 CNS): 955 nM | GI50 (CCRF-CEM leukemia): 125 nM | TGI (CCRF-CEM leukemia): 1440 nM | GI50 (HOP-92 NSCLC): 401 nM | TGI (HOP-92 NSCLC): 1250 nM | GI50 (SNB-19 CNS): 563 nM | TGI (SNB-19 CNS): 1220 nM | GI50 (SNB-75 CNS): 443 nM | TGI (SNB-75 CNS): 877 nM | GI50 (MCF7 breast): 371 nM | TGI (MCF7 breast): 892 nM | GI50 (A549 NSCLC): 342 nM | TGI (A549 NSCLC): 930 nM | GI50 (HT29 colon): 280 nM | TGI (HT29 colon): 1290 nM
